# Measurements published in patent US12398102B2, “Formulation for soft anticholinergic analogs” (BODOR LABORATORIES, INC., priority 2014, dated 2025).
# How the values were obtained:
# [1] = Stability of approximately 2% BBI-4000 in four solvent systems (HPLC); type: physicochemical; conditions: for BBI-4000 Assay, Change from Baseline (40° C./75%), reduction: Day 7
# Protocol: Various formulations of approximately 2% BBI-4000 were made and their stabilities assessed. The solvent systems were as follows: • (a) solvent content: 100% water; • (b) solvent content: 60% water/40% ethanol; • (c) solvent content: 30% water/70% ethanol; • (d) solvent content: 100% ethanol. Each sample was assessed at baseline; after 7 days at 25° C./60% humidity; and after 7 days at 40° C./75% humidity. The percentage change from baseline for 40° C. after 7 days was calculated in each case. HPLC analysis was conducted as described in EXAMPLE 2 below.
# There is clearly a dramatic difference in the stability of the anhydrous ethanol formulation compared to the water-containing formulations.
# [2] = HPLC assay and impurities of aqueous BBI-4000 gel formulations at differing pH; type: physicochemical; conditions: Day 7
# Protocol: The standards were prepared in duplicate by weighing 2.0±0.1 mg of BBI-4000 into 1 mL volumetric flasks. Dissolved and diluted to volume with acetonitrile and mixed by inversion.
# Gel samples were prepared in duplicate at a target concentration of 2 mg/ml in a 5-mL volumetric flask. Added 1.5 ml H2O and mixed to disperse the sample. Diluted to volume with acetonitrile and filtered an aliquot through a syringe filter.
# The liquid chromatographic system was set-up as follows: • HPLC Column: XBridge Shield RP18, 4.6×150 mm, 3.5 μm • Column Temp.: 25±1° C. • Sample Temp.: ambient • Flow Rate: 1.5 mL/min • Injection Volume: 10 μL • UV Detection: 220 nm • Run Time: 20 minutes
# [3] = Toxicokinetics (PK samples) in the 14-day Göttingen Minipig study; type: in vivo, Göttingen Minipigs
# Protocol: (§1) All groups received 2 mL of gel formulation, once a day, for 14 consecutive days, applied to approximately 10% of their body surface area on their back.
# (§2) The study included daily observations of the site of application and scoring of erythema and edema (if present), daily general examinations including heart rate as well as pupil size assessments at days 1, 2, 3, 5, 7, 10 and 14. The frequent observations of heart rate and pupil size were intended to identify any potential systemic anticholinergic effect. Main organs were evaluated during necropsy and histopathology evaluation was completed for treated and untreated skin. Blood samples for chemistry and hematology analysis were collected as well as PK samples.
# [4] = tested on: subjects with axillary hyperhidrosis; assay: Study BBI-4000-CL-101: efficacy, gravimetric sweat production and HDSS; type: in vivo, human
# Protocol: Efficacy was assessed by the change in gravimetrically measured sweat production and the change in hyperhidrosis disease severity scale (HDSS) from baseline to Day 15 (end of therapy).
# For the gravimetric assessment, sweat production was measured by placing filter paper (pre-weighed) on the axilla for 5 minutes while the subject was in a semi-reclining position at room temperature. The filter paper was covered with plastic during exposure to the axilla, and was then weighed following the 5-minute exposure period to calculate the amount of sweat produced.
# For the HDSS, subjects rated the severity of their hyperhidrosis on a 4-point scale (1,2, 3, or 4) based on the level of interference with their daily activities.
# Göttingen Minipigs = assay: 14-day dermal and systemic toxicity study in Göttingen Minipigs; conditions: anhydrous composition, 14 days, dermal
# Protocol: as §1, §2
# The estimated BBI-4000 dose applied to the skin in this study was 40 mg/kg/day for Group 3 and 20 mg/kg/day for Group 2.
# [5] = solvent 100% ethanol, Day 7 @ 25° C./60%
compound,measurement,setting,value
"CCOC(=O)C[N@+]1(C)CCC(OC(=O)[C@](O)(c2ccccc2)C2CCCC2)C1.[Br-] (stereo partly drawn) [BBI-4000, (2R,3′R) 3-(2-cyclopentyl-2-phenyl-2-hydroxyacetoxy)-1-(ethoxycarbonylmethyl)-1-methylpyrrolidinium bromide]",Stability in words: baseline amount of BBI-4000 retained,"[1]; 100% ethanol (absolute or anhydrous), 7 days at 40° C.",essentially maintained the baseline amount of BBI-4000
same,"BBI-4000 Assay, Change from Baseline (40° C./75%), reduction","[1]; solvent 30% water, 70% ethanol",reduction 5%
same,BBI-4000 Main Hydrolysis Products (RRT-0.79-0.84),"[1]; solvent 30% water, 70% ethanol, Day 7 @ 25° C./60%",0.84%
same,BBI-4000 Main Hydrolysis Products (RRT-0.79-0.84),"[1]; solvent 30% water, 70% ethanol, Day 7 @ 40° C./75%",3.50%
same,BBI-4000 Main Hydrolysis Products (RRT-0.79-0.84),"[1]; solvent 30% water, 70% ethanol, baseline",0
same,"BBI-4000 Assay, Change from Baseline (40° C./75%), reduction","[1]; solvent 60% water, 40% ethanol",reduction 5%
same,BBI-4000 Main Hydrolysis Products (RRT-0.79-0.84),"[1]; solvent 60% water, 40% ethanol, Day 7 @ 25° C./60%",0.83%
same,BBI-4000 Main Hydrolysis Products (RRT-0.79-0.84),"[1]; solvent 60% water, 40% ethanol, Day 7 @ 40° C./75%",3.40%
same,BBI-4000 Main Hydrolysis Products (RRT-0.79-0.84),"[1]; solvent 60% water, 40% ethanol, baseline",0
same,"BBI-4000 Assay, Change from Baseline (40° C./75%), reduction",[1]; solvent 100% ethanol,reduction <1%
same,BBI-4000 Assay,[1]; [5],2%
same,BBI-4000 Main Hydrolysis Products (RRT-0.79-0.84),[1]; [5],0
same,BBI-4000 Main Hydrolysis Products (RRT-0.79-0.84),"[1]; solvent 100% ethanol, Day 7 @ 40° C./75%",0
same,BBI-4000 Main Hydrolysis Products (RRT-0.79-0.84),"[1]; solvent 100% ethanol, baseline",0
same,"BBI-4000 Assay, Change from Baseline (40° C./75%), reduction",[1]; solvent 100% water,reduction 9.5%
same,BBI-4000 Main Hydrolysis Products (RRT-0.79-0.84),"[1]; solvent 100% water, Day 7 @ 25° C./60%",1.90%
same,BBI-4000 Assay,"[1]; solvent 100% water, Day 7 @ 40° C./75%",1.80%
same,BBI-4000 Main Hydrolysis Products (RRT-0.79-0.84),"[1]; solvent 100% water, baseline",0
same,"Stability of the aqueous formulation system, in words",[2],lack of stability of this formulation system
same,Time at which the highest concentration was observed,"[3]; after Day-14 dosing, minipig receiving 20% BBI-4000",2 h
same,Systemic exposure (PK analysis),"[3]; dermal 10% and 20% gel, 14 days","variable, dose related systemic exposure"
same,Comparison of 10% gel and 5% gel (sweat reduction and HDSS improvement),"[4]; Cohort 2, small sample size, no definitive conclusion",BBI-4000 10% gel performed better than BBI-4000 5% gel
same,Subjects reporting a >2-point improvement in HDSS,"[4]; Day 15, 5% and 10% gel aggregated (8 of 12)",67%
same,Proportion of subjects with at least a 50% reduction in sweat production,"[4]; Day 15, 5% and 10% gel aggregated (9 of 12)",75%
same,Histopathology analysis of treated skin,Göttingen Minipigs,unremarkable and identical to non-treated and vehicle treated skin
